Measurements reported in the NIST ThermoML archive (doi:10.1016/j.jct.2018.05.008).

Experiment: mn = molality of the nth substance listed, in mol/kg
Settings: 101.3 kPa, Liquid, Vibrating tube method

O [water] + N[C@@H](CO)C(=O)O
m2 = 0
Settings	mass density [kg/m3]
308.15 K	994.06
310.15 K	993.36

O [water] + NCC(=O)O
m2 = 0
Settings	mass density [kg/m3]
308.15 K	994.07
310.15 K	993.37
318.15 K	990.26

C[C@@H](O)[C@H](N)C(=O)O [L-threonine] + O
mass density [kg/m3]
Settings	m1 = 0.1926	m1 = 0.2858	m1 = 0.3869	m1 = 0.4789	m1 = 0.5872	m1 = 0.6687
288.15 K	1007.25	1011.08	1015.18	1018.78	1022.93	1026.01
298.15 K	1005.04	1008.79	1012.82	1016.36	1020.45	1023.46
308.15 K	1001.91	1005.62	1009.58	1013.09	1017.13	1020.1
310.15 K	1001.19	1004.89	1008.86	1012.35	1016.39	1019.34
318.15 K	998.01	1001.68	1005.6	1009.09	1013.09	1016.02

O [water] + CCC(N)C(=O)O
Settings	mass density [kg/m3]
310.15 K, m2 = 0	993.32

NCC(=O)O [2-aminoacetic acid] + O
mass density [kg/m3]
Settings	m1 = 0.0602	m1 = 0.1201	m1 = 0.1992	m1 = 0.3016	m1 = 0.3854	m1 = 0.4462	m1 = 0.5271	m1 = 0.6444	m1 = 0.7856
288.15 K	1001.04	1002.97	1005.49	1008.71	1011.3	1013.17	1015.62	1019.16	1023.32
298.15 K	998.98	1000.87	1003.34	1006.49	1009.02	1010.84	1013.23	1016.66	1020.69
308.15 K	995.95	997.8	1000.22	1003.32	1005.82	1007.61	1009.97	1013.36	1017.38
310.15 K	995.25	997.1	999.51	1002.59	1005.07	1006.86	1009.22	1012.6	1016.6
318.15 K	992.13	993.97	–	999.45	1001.91	1003.69	1006.03	1009.41	1013.42

N[C@@H](CO)C(=O)O [L-serine] + O
mass density [kg/m3]
Settings	m1 = 0.0489	m1 = 0.104	m1 = 0.2	m1 = 0.292	m1 = 0.3911	m1 = 0.471	m1 = 0.5884	m1 = 0.6788	m1 = 0.7168
288.15 K	1001.29	1003.76	1008.02	1012.04	1016.28	1019.63	1024.47	1028.16	1029.64
298.15 K	999.22	1001.64	1005.81	1009.76	1013.93	1017.22	1021.98	1025.59	1027.05
308.15 K	996.21	998.6	1002.72	1006.6	1010.72	1013.95	1018.62	1022.22	1023.66
310.15 K	995.5	997.89	1002	1005.88	1009.98	1013.21	1017.85	1021.44	1022.88
318.15 K	992.38	994.75	998.83	1002.65	1006.72	1009.93	1014.6	1018.12	1019.57
